# Measured values from PMC4916434, “Evaluation of the inhibition potential of plumbagin against cytochrome P450 using LC-MS/MS and cocktail approach” (Scientific Reports, 2016).
# Legend:
# CYP2C9 = target: T1, CYP2C9 (Homo sapiens, UniProt P11712); assay: CYP2C9 inhibition (tolbutamide methyl-hydroxylation) in pooled human liver microsomes, cocktail LC-MS/MS; type: in vitro ADME
# T1 construct: consisting of pooled HLMs (0.5 mg/ml) or RLMs (1 mg/ml) and an NADPH-regenerating system; tissue Corning Gentest Corporation; host or cells: pooled human liver microsomes (n = 20)
# T1 sequence (P11712 whole entry): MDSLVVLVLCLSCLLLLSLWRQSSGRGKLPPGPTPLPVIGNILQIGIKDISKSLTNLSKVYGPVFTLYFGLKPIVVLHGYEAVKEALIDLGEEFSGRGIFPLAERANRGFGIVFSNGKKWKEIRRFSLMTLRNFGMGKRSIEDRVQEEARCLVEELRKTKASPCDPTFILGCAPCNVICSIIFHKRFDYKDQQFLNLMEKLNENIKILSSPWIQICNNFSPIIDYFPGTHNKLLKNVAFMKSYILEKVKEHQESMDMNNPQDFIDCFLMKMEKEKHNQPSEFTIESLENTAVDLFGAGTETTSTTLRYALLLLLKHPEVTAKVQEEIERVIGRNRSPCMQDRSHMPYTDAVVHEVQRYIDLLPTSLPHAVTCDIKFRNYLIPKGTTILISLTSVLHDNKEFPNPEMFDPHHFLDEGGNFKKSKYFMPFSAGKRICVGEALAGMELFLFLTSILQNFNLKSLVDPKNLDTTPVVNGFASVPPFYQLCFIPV
# Method: (§1) Microsomal incubation was carried out at 37 °C in a mixture of 200 μl in 0.05 M Tris/HCl buffer (pH 7.4) consisting of pooled HLMs (0.5 mg/ml) or RLMs (1 mg/ml) and an NADPH-regenerating system including MgCl2 (5 mM), G6P (10 mM), G6PDH (0.4 U/ml) and NADP (1 mM). Substrates were added into the incubation mixture and obtained the final concentrations (10 μM phenacetin for CYP1A2, 20 μM bupropion for CYP2B1/6, 20 μM tolbutamide for CYP2C9/11, 5 μM dextromethorphan for CYP2D1/6, 20 μM chlorzoxazone for CYP2E1 and 10 μM midazolam for CYP3A2/4), which were close to Km respectively. The proportion of organic solvent was not higher than 1% (v/v) in the incubation mixture. After pre-incubation for 5 min, the reaction was initiated by addition of NADP. Incubations were performed for 20 min, stopped by adding 200 μl ice-cold acetonitrile. And then 20 μl internal standard solution was added (3-acetamidophenol 2 μg/ml, chlorpropamide 2 μg/ml and mebendazole 2 μg/ml). The solution was mixed thoroughly for 3 min and centrifuged for 10 min at 16,000 × g at 4 °C. The supernatant (60 μl) was transferred to autosampler vials, and 2 μl was injected into LC-MS/MS system.
# (§2) The IC50 (concentration of inhibitor to cause 50% inhibition of original enzyme activity) values were determined with the same incubation condition above. The specific concentrations of plumbagin were ranged from 0.1 μM to 50 μM. The IC50 values were calculated by plotting relative activities over the logarithm of plumbagin concentrations using GraphPad Prism 5.0 (GraphPad software Inc., CA, USA).
# (§3) Cocktail probe substrates were then added and incubated for 20 min. Reactions were stopped with 200 μl ice-cold acetonitrile. The samples were treated according to the microsomal incubation method and then injected into LC-MS/MS for analysis.
# (§4) Kinetic studies were performed for determining the types of inhibition on CYP by plumbagin. Pooled HLMs (0.5 mg/ml) or RLMs (1 mg/ml) with plumbagin (1 μM, 2 μM, 5 μM and 10 μM) were incubated in 0.05 M Tris/HCl buffer (pH 7.4) for 20 min at 37 °C. A series of concentrations for cocktail probe substrates were used: 2.5–20 μM phenacetin for CYP1A2; 5–40 μM bupropion for CYP2B1/6; 5–40 μM tolbutamide for CYP2C9/11; 1.25–10 μM dextromethorphan for CYP2D1/6; 5–40 μM chlorzoxazone for CYP2E1; 2.5–80 μM midazolam for CYP3A2; and 0.625–5 μM midazolam for CYP3A4. Enzyme kinetics as well as statistical analysis were performed using GraphPad Prism 5.0.
# (§5) All data were presented as mean ± SD. The IC50 values were fitted by non-linear regression analysis using GraphPad Prism 5.0. The kinetic parameters were obtained by fitting velocity data to kinetic models (Michaelis-Menten) using GraphPad Prism 5.0. The Lineweaver-Burk Plot (the reciprocal of reaction velocities versus the reciprocal of substrates concentrations) was used to determine the quality of fit to a specific inhibition model. The inhibition constant (Ki) was obtained by a secondary plot using the slopes of the primary Lineweaver-Burk Plot (Km/Vmax versus inhibitor concentrations). αKi was obtained from a secondary plot using the y-intercepts of the Lineweaver-Burk plot (1/Vmax versus inhibitor concentrations). All results were analyzed in quadruplicate. One-way analysis of variance was used to estimate the significance of differences. There was statistical significance between control and test groups if p < 0.05.
# CYP2D6 = target: T2, CYP2D6 (Homo sapiens, UniProt P10635); assay: CYP2D6 inhibition (dextromethorphan O-demethylation) in pooled human liver microsomes, cocktail LC-MS/MS; type: in vitro ADME
# T2 construct: consisting of pooled HLMs (0.5 mg/ml) or RLMs (1 mg/ml) and an NADPH-regenerating system; tissue Corning Gentest Corporation; host or cells: pooled human liver microsomes (n = 20)
# T2 sequence (P10635 whole entry): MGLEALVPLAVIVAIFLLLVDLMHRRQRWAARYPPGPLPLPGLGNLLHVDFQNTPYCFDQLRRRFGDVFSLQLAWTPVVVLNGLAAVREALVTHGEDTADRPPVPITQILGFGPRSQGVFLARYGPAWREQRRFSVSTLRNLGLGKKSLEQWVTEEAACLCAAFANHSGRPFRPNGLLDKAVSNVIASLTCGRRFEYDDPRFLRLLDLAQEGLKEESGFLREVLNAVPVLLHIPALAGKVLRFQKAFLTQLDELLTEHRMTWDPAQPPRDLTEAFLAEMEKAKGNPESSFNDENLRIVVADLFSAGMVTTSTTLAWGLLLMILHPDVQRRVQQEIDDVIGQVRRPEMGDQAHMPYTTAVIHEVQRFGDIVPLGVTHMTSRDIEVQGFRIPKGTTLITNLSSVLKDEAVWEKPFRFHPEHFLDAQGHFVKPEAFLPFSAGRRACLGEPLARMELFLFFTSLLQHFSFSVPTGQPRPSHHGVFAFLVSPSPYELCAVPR
# Method: as §1, §2, §3, §4, §5
# CYP2E1 = target: T3, CYP2E1 (Rattus norvegicus, UniProt P05182); assay: biochemical; type: in vitro ADME
# T3 construct: consisting of pooled HLMs (0.5 mg/ml) or RLMs (1 mg/ml) and an NADPH-regenerating system; from tissue; host or cells: rat liver microsomes prepared in house
# T3 sequence (P05182 whole entry): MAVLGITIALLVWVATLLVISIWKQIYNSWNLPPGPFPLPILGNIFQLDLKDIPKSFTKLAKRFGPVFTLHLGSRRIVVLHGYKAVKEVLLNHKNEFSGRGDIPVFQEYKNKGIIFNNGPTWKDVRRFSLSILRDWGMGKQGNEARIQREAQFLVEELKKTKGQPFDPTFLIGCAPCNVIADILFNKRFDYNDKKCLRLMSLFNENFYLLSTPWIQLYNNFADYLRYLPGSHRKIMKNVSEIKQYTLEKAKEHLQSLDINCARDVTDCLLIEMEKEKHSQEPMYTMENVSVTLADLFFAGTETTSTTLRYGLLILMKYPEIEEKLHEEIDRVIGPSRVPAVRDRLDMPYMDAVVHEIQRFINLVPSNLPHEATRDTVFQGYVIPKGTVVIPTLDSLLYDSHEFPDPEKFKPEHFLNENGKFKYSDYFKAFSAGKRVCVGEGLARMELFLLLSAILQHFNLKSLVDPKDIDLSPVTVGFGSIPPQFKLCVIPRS
# Method: In this study, the rats were fasted overnight and killed by cervical dislocation before removal of the liver. The liver was excised, rinsed with ice-cold saline (0.9% NaCl w/v), weighed and homogenized in a […] Tris/KCl buffer (pH 7.4). Subsequently, the homogenate was centrifuged at 10,000 × g at 4 °C for 30 min. The supernatant was then centrifuged at 105,000 × g at 4 °C for 60 min. The pellet was reconstituted with […] Tris/KCl buffer (pH 7.4) and stored at −150 °C until use. The protein concentration of the liver microsomes was determined by a protein quantitative assay using bicinchoninic acid[22].
# as §1
# The IC50 (concentration of inhibitor to cause 50% inhibition of original enzyme activity) values were determined with the same incubation condition above. The specific concentrations of plumbagin were ranged from 0.1 μM to 50 μM. […]
# All data were presented as mean ± SD. […] All results were analyzed in quadruplicate. […]
# [1] = rat, in vivo, po, 100 mg/kg; cited from earlier work
smiles,measurement,setting,value
"CC1=CC(=O)c2c(O)cccc2C1=O [plumbagin, 5-hydroxy-2-methyl-1,4-naphthoquinone]",IC50,CYP2C9,10.9 µM
same,Ki,CYP2C9,2.16 µM
same,Type of inhibition,CYP2C9,mixed-type
same,αKi,"CYP2C9; HLMs, secondary plot of y-intercepts, tolbutamide 5-40 μM",1.46 µM
same,α,"CYP2C9; human, 20 min, pH 7.4",1.48
same,IC50,CYP2D6,10.2 µM
same,Type of inhibition,CYP2D6,mixed-type
same,Ki,"CYP2D6; HLMs, secondary Lineweaver-Burk plot, dextromethorphan 1.25-10 μM",1.46 µM
same,α,"CYP2D6; human, 20 min, pH 7.4",0.66
same,αKi,"CYP2D6; human, 20 min, pH 7.4",2.22 µM
same,IC50,CYP2E1,3.72 µM
same,Ki,CYP2E1,6.28 µM
same,Type of inhibition,CYP2E1,competitive
same,Cmax,[1],1860 nM
same,area under the curve (AUC) in the plasma,[1],271.9 µg·min/mL
same,half-life (t1/2) in the plasma,[1],17.13 h
same,peak concentration (Cmax) in the plasma,[1],350 ng/mL
